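The compound was tested at five concentrations on cells cultured in 96-well plates, with a 48-hour exposure period. GI50: concentration for 50% inhibition of growth.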 Active and inactive are the calls of the source. No stated cut-off is given here; in the data, active = GI50 up to about 1.1 µM and inactive = higher.
Experiments:
Experiment in all cases: NCI tumour cell line growth inhibition, 48 h
K562 = system: K562
SF-539 = system: SF-539
U-251 = system: U-251
SNB-19 = system: SNB-19
EKVX = system: EKVX
DU-145 = system: DU-145
MOLT-4 = system: MOLT-4
UO-31 = system: UO-31
SF-295 = system: SF-295
OVCAR-4 = system: OVCAR-4
OVCAR-3 = system: OVCAR-3
OVCAR-5 = system: OVCAR-5
UACC-62 = system: UACC-62
KM12 = system: KM12
NCI-H23 = system: NCI-H23
PC-3 = system: PC-3
HT-29 = system: HT-29
MDA-MB-435 = system: MDA-MB-435
NCI-H460 = system: NCI-H460

| SMILES | GI50 (K562) | GI50 (SF-539) | GI50 (U-251) | GI50 (SNB-19) | GI50 (EKVX) | GI50 (DU-145) | GI50 (MOLT-4) | GI50 (UO-31) | GI50 (SF-295) | GI50 (OVCAR-4) | GI50 (OVCAR-3) | GI50 (OVCAR-5) | GI50 (UACC-62) | GI50 (KM12) | GI50 (NCI-H23) | GI50 (PC-3) | GI50 (HT-29) | GI50 (MDA-MB-435) | GI50 (NCI-H460) |
| --- | --- | --- | --- | --- | --- | --- | --- | --- | --- | --- | --- | --- | --- | --- | --- | --- | --- | --- | --- |
| CC1(c2nc3ccccc3[nH]2)CCC(C(=O)O)C(C)(C)O1 (configuration not stated) | > 100 µM (inactive) | > 100 µM (inactive) | > 100 µM (inactive) | > 100 µM (inactive) | > 100 µM (inactive) | > 100 µM (inactive) | > 100 µM (inactive) | > 100 µM (inactive) | > 100 µM (inactive) | > 100 µM (inactive) | > 100 µM (inactive) | > 100 µM (inactive) | > 100 µM (inactive) | 26.5 µM (inactive) | > 100 µM (inactive) | > 100 µM (inactive) | > 100 µM (inactive) | > 100 µM (inactive) |  |
| O=C(O)c1ccccc1CC(Cc1ccc2c(c1)CCC2)C(=O)O (configuration not stated) | > 100 µM (inactive) | > 100 µM (inactive) | > 100 µM (inactive) | > 100 µM (inactive) | > 100 µM (inactive) | > 100 µM (inactive) | > 100 µM (inactive) | > 100 µM (inactive) | > 100 µM (inactive) | > 100 µM (inactive) | > 100 µM (inactive) | > 100 µM (inactive) |  | > 100 µM (inactive) | > 100 µM (inactive) | > 100 µM (inactive) | > 100 µM (inactive) | > 100 µM (inactive) | > 100 µM (inactive) |
| Brc1ccc(-c2cc(-c3ccc4c(c3)OCO4)c(-c3cccs3)n2Cc2ccccc2)cc1 | > 100 µM (inactive) | > 100 µM (inactive) | > 100 µM (inactive) | > 100 µM (inactive) | > 100 µM (inactive) | > 100 µM (inactive) | > 100 µM (inactive) | > 100 µM (inactive) | > 100 µM (inactive) | > 100 µM (inactive) |  |  | > 100 µM (inactive) | > 100 µM (inactive) |  | > 100 µM (inactive) | > 100 µM (inactive) | > 100 µM (inactive) | > 100 µM (inactive) |
| Cc1ccc(SC(=O)N2C(=S)N=C(NC3CCCCC3)C23CCCCC3)cc1 | > 100 µM (inactive) | > 100 µM (inactive) | 95.3 µM (inactive) | > 100 µM (inactive) | > 100 µM (inactive) | > 100 µM (inactive) |  | 46.6 µM (inactive) | > 100 µM (inactive) | > 100 µM (inactive) | 50.6 µM (inactive) | > 100 µM (inactive) | > 100 µM (inactive) | 69.7 µM (inactive) | > 100 µM (inactive) | 44.6 µM (inactive) | 57.9 µM (inactive) | > 100 µM (inactive) | 81.3 µM (inactive) |
| CC(C)(C)C1CCC2c3c([nH]c4ccccc34)C3C(=O)N(c4cc(Br)cc(Br)c4)C(=O)C3C2C1 (configuration not stated) |  | 16.7 µM (inactive) | 13.4 µM (inactive) |  | 6.58 µM (inactive) | 21.4 µM (inactive) | 5.26 µM (inactive) | 6.97 µM (inactive) |  | 10.1 µM (inactive) | > 10 µM (inactive) | 31.6 µM (inactive) | 25.1 µM (inactive) | 12.6 µM (inactive) | 15.9 µM (inactive) | 9.95 µM (inactive) | 9.89 µM (inactive) | 19.7 µM (inactive) | 6.43 µM (inactive) |
| Cc1cc2c(cc1Cl)SC(c1ccccc1)C(=O)NS2(=O)=O (configuration not stated) | 39.2 µM (inactive) | 26.7 µM (inactive) | 23.1 µM (inactive) |  | 70.1 µM (inactive) | 34.9 µM (inactive) | 26 µM (inactive) | 28.1 µM (inactive) | 28.3 µM (inactive) | 35.4 µM (inactive) | 21.6 µM (inactive) | 45.9 µM (inactive) |  | 30.3 µM (inactive) | 24.4 µM (inactive) | 26.4 µM (inactive) | 32 µM (inactive) | 35.1 µM (inactive) | 30.3 µM (inactive) |
| CCC(C(=O)C(=O)C(CC)P1(=O)OC(C)(C)CN1C(C)(C)C)P1(=O)OC(C)(C)CN1C(C)(C)C (configuration not stated) | 31.8 µM (inactive) | > 100 µM (inactive) | > 100 µM (inactive) | > 100 µM (inactive) | > 100 µM (inactive) | > 100 µM (inactive) | 22.2 µM (inactive) | > 100 µM (inactive) | > 100 µM (inactive) |  | > 100 µM (inactive) |  | > 100 µM (inactive) | > 100 µM (inactive) | > 100 µM (inactive) | > 100 µM (inactive) | > 100 µM (inactive) | > 100 µM (inactive) | > 100 µM (inactive) |
| COC(=O)c1c(O)ccc2c1c1c(n2C)C(=O)c2ccccc2C1=O | > 100 µM (inactive) | 17.6 µM (inactive) | 15.7 µM (inactive) | 16.3 µM (inactive) | 42 µM (inactive) | 11.9 µM (inactive) | 5.78 µM (inactive) | 6.75 µM (inactive) | 22.5 µM (inactive) | 13.6 µM (inactive) | 35.3 µM (inactive) | 85.3 µM (inactive) |  | 57.7 µM (inactive) | 19.7 µM (inactive) | 23.3 µM (inactive) | 78.2 µM (inactive) | 33 µM (inactive) | 8 µM (inactive) |
| N=C(N)NCCN1CCCCCc2ccccc21 | > 10 µM (inactive) | > 10 µM (inactive) | > 10 µM (inactive) | > 10 µM (inactive) | > 10 µM (inactive) | > 10 µM (inactive) | > 10 µM (inactive) |  | > 10 µM (inactive) | > 10 µM (inactive) | > 10 µM (inactive) | > 10 µM (inactive) | 9.25 µM (inactive) | > 10 µM (inactive) | > 10 µM (inactive) | 7.26 µM (inactive) | > 10 µM (inactive) | > 10 µM (inactive) | > 10 µM (inactive) |
| COc1ccc2nc3ccc(OC)cc3c(SCc3ccccc3)c2c1 | > 63.2 µM (inactive) | > 89.3 µM (inactive) | > 88.3 µM (inactive) | > 100 µM (inactive) | > 100 µM (inactive) | > 100 µM (inactive) | > 41.6 µM (inactive) |  | > 91 µM (inactive) | > 100 µM (inactive) | > 100 µM (inactive) | > 100 µM (inactive) | > 100 µM (inactive) | > 100 µM (inactive) | 64.7 µM (inactive) | > 100 µM (inactive) | > 100 µM (inactive) | > 76.9 µM (inactive) | > 89.1 µM (inactive) |
| Oc1ccc([C@H]2c3c(O)cc(O)cc3C3c4c(cc(O)cc4[C@@H]2[C@H]2c4cc(O)cc5c4C(c4cc(O)cc(O)c4[C@@H]2c2ccc(O)cc2)[C@@H](c2ccc(O)cc2)O5)O[C@@H]3c2ccc(O)cc2)cc1 (some centres not stated) | 35.2 µM (inactive) | 0.564 µM (active) | 3.55 µM (inactive) | 3.35 µM (inactive) | 0.29 µM (active) | 2.99 µM (inactive) | 0.975 µM (active) |  | 3.86 µM (inactive) | 0.83 µM (active) | 0.569 µM (active) | 0.678 µM (active) | 0.15 µM (active) | 0.0211 µM (active) | 0.526 µM (active) | 0.391 µM (active) | 0.861 µM (active) | 2.59 µM (inactive) | 3.89 µM (inactive) |
| NC1=Nc2cc(Cl)ccc2Sc2nc3ccccc3n21 | 3.47 µM (inactive) | > 100 µM (inactive) | 4.48 µM (inactive) | 22.2 µM (inactive) | 20.3 µM (inactive) | > 100 µM (inactive) | 2.61 µM (inactive) | > 100 µM (inactive) | > 95.7 µM (inactive) | > 20.8 µM (inactive) | > 100 µM (inactive) |  | 4.66 µM (inactive) | > 100 µM (inactive) | 6.53 µM (inactive) | 6.76 µM (inactive) | 4.53 µM (inactive) | > 100 µM (inactive) | 4.13 µM (inactive) |
| Cc1cn([C@H]2CN(O)C[C@@H](CO)O2)c(=O)[nH]c1=O | > 100 µM (inactive) | > 100 µM (inactive) | > 100 µM (inactive) | > 100 µM (inactive) | > 100 µM (inactive) | > 100 µM (inactive) | > 100 µM (inactive) | > 100 µM (inactive) | > 100 µM (inactive) | > 100 µM (inactive) |  | > 100 µM (inactive) | > 100 µM (inactive) | > 100 µM (inactive) |  | > 100 µM (inactive) |  | > 100 µM (inactive) | > 100 µM (inactive) |
| CC(C)OP(=O)(OC(C)C)C(C(C)C)N(C)/C(F)=N/C(F)(F)F (configuration not stated) | 60.5 µM (inactive) | > 100 µM (inactive) | > 100 µM (inactive) | > 100 µM (inactive) | > 100 µM (inactive) | > 100 µM (inactive) | 75.7 µM (inactive) | > 100 µM (inactive) | > 100 µM (inactive) |  | > 100 µM (inactive) | > 100 µM (inactive) | > 100 µM (inactive) | > 100 µM (inactive) | > 100 µM (inactive) | > 100 µM (inactive) | > 100 µM (inactive) | > 100 µM (inactive) | > 100 µM (inactive) |
| CC1OC2=N[C@@H]1C(=O)N[C@@H](C(C)C)C1=N[C@H](C(=O)N[C@@H](C(C)C)C3=N[C@H](C(=O)N[C@@H](C(C)C)C4=N[C@H](C(=O)N[C@H]2C(C)C)C(C)O4)C(C)O3)C(C)O1 (some centres not stated) | > 10 µM (inactive) | > 10 µM (inactive) | > 10 µM (inactive) | > 10 µM (inactive) | > 10 µM (inactive) | > 10 µM (inactive) | > 10 µM (inactive) | > 10 µM (inactive) | > 10 µM (inactive) | > 10 µM (inactive) | > 10 µM (inactive) | > 10 µM (inactive) |  | > 10 µM (inactive) | > 10 µM (inactive) | > 10 µM (inactive) | > 10 µM (inactive) | > 10 µM (inactive) | > 10 µM (inactive) |

Reference: ChEMBL document CHEMBL1201862, “PubChem BioAssay data set” (2004)
